# Source: a melting point compilation (Tetko et al.; mined from patent text by program, amines drawn as free bases though some values may be those of a salt)
row,SMILES,melting point [°C]
1,Nc1nc(N)nc(C2CCC(c3nc(N)nc(N)n3)CC2)n1 (stereo not given),317 to 321
2,COC(=O)c1ccc(CBr)c(OC)c1,87 to 90
3,CC(=O)C1=NN(c2ccc(C(=O)O)c(Cl)c2)C(=O)C1,> 250
4,NC(=O)N1CC(c2ccccc2)C(c2ccc(Cl)cc2)=N1 (stereo not given),173 to 175
5,Cc1cc(-n2c(C)nnc2C)cc2ccc(=O)[nH]c12,308 to 310
6,CN1CCC(C2=C(C#N)C(c3cccc4nonc34)c3c[nH]nc3N2)CC1 (stereo not given),> 270
7,CCCCCc1c(C(O)CC)nc(C(C)C)c(CO)c1-c1ccc(F)cc1 (stereo not given),89 to 90
8,CC(=NOCCOc1ccc(CC2SC(=O)NC2=O)cc1)c1cncc(-c2ccccc2)c1 (stereo not given),150 to 153
9,COc1cc(Cl)c(Nc2nc(C)ccc2S(=O)(=O)c2ccc(OCc3ccccc3OC)cc2)cc1F,62 to 64
10,Cn1cc(CS(C)(=O)=O)c(=O)c2ccccc21,200 to 201
11,CC(=O)c1c(O)cc(O)cc1O,218 to 219
12,CN1C(=O)C2(CCNCC2)c2ccccc21,146 to 151
13,Nc1n[nH]c2c(C(F)(F)F)cccc12,101 to 102
14,CC1N=C(NN2CCCCC2)NN=C1c1ccccc1 (stereo not given),188 to 190
15,COc1ccc(C(=O)NCc2ccc(OCCN(C)C)cc2)cc1OC,111 to 112
16,O=C(OC1CCCCC1C(C[N+](=O)[O-])c1ccc(Cl)cc1)c1ccc([N+](=O)[O-])cc1 (mixture of isomers),146 to 148
17,CC(=O)Oc1cccc(C(=O)O)c1C,147 to 148
18,Nc1ccn2nc(-c3cccnc3)nc2c1,228 to 233
19,N#CCCNC(=O)c1cccc(-c2cccc3c2CN(Cc2cccc(C(F)(F)F)c2)CC3)c1,114 to 117
20,CCOC(=O)C(C)Oc1ccc(Sc2ccc(C(F)(F)F)cc2[N+](=O)[O-])cc1 (stereo not given),63 to 64
21,O=[N+]([O-])c1ccc(Cl)cc1Cc1ccccn1,69
22,CCNC(=O)c1nc(-c2ccccc2)c(-c2ccc(=O)n(C(C)C)n2)s1,172 to 174
23,O=C1c2ccccc2C(=O)N1C[C@H]1COc2ccc(Cl)cc2O1,174 to 176
24,CS(=O)(=O)c1cccc(NC(=O)c2cnn3c(C(F)(F)F)cc(-c4ccc(F)c(F)c4)nc23)c1,256
25,O=C(Nc1cc(Cl)ccc1O)Nc1ccccc1C(F)(F)F,183 to 184

row,SMILES,melting point [°C]
1,C[C@H](c1ccccc1)N1C(=O)N(C(=O)OC(C)(C)C)[C@@H]2C(=O)OC[C@@H]21,177 to 178
2,CCN(C(=O)n1nc2c(Cl)c(Cl)c(Cl)c(Cl)c2n1)c1ccccc1,157
3,CC(O)Cc1cc2c3ccccc3[nH]c(=O)n2n1 (stereo not given),228 to 229
4,CNc1c(F)cc2c(=O)c(C(=O)O)cn(-c3ccc(F)c(O)c3)c2c1C,> 280
5,NS(=O)(=O)c1ccc(-c2cnn(-c3ccc(F)c(F)c3)c(=O)c2-c2ccc(F)cc2)cc1,177 to 181
6,CN1CCc2c(cccc2NC(=O)c2ccccc2F)C1,112
7,CC(=O)c1cn(C)cc(-c2cccc(Cl)c2)c1=O,175 to 177
8,O=C(O)c1ccc(-c2ccc(OCCCCCCO)cc2)cc1,235
9,O=C(Cc1ccccn1)c1nc2ccccc2[nH]1,202
10,O=C([C@@H](Cc1ccc(Cl)cc1)NC1CCCCC1)N1CCC(Cn2cncn2)(C2CCCCC2)CC1,60
11,O=S(=O)(c1ccc(OCCO)cc1)C(Br)(Br)Br,157 to 162
12,[O-][N+]1=C(c2ccccc2Cl)c2cc(Cl)ccc2-c2ncncc2C1,216 to 217
13,C=C[C@@H]1CCC(=O)N1C(=O)[C@H](Cc1ccccc1)O[Si](C)(C)C(C)(C)C,92 to 93.5
14,O=S1(=O)NCN(C2CCCCC2)c2cc(Cl)c(Cl)cc21,207 to 209
15,N#CNC(=Nc1cccnc1)NC1CCN(Cc2ccccc2)CC1,173 to 174
16,N#Cc1cccc(-n2c(=O)oc3ccc(-c4ccc(F)cc4F)cc3c2=O)c1,209 to 210
17,COCCNC(=O)c1ccc(C)c(-n2c(C)cc(OCc3ccccc3CNC(=O)Nc3cc(C(C)(C)C)nn3-c3ccc(O)c(Cl)c3)c(Cl)c2=O)c1,179 to 180
18,Cc1cccc2[nH]c(=O)n(CCCN3CC=C(c4cccc(Cl)c4)CC3)c(=O)c12,180 to 183
19,COc1ccc(-c2cncn2-c2ccc(S(C)(=O)=O)cc2)c(Cl)n1,192 to 198
20,O=c1c2cc(F)c(N3CCCC3)nc2n(-c2ccccc2F)c(=O)n1OCc1ccccc1,221 to 222
21,O=CC[C@@H](O)[C@H](O)[C@H](O)CO,146 to 149
22,Cc1ccc(C=CC(C#N)=NOS(C)(=O)=O)cc1,134 to 135
23,COCCNC(=O)c1cccc(-c2cccc3cc(Cc4cccc(C(F)(F)F)c4)sc23)c1F,94 to 95
24,CCCNC(=O)n1c(Cc2ccccc2)noc1=O,74
25,CC(C)(NC(=O)C(CO)NC(=O)c1ccccc1)c1ccccc1 (stereo not given),152 to 153
